Bounds are passed on as bounds.

System in the first data set: not listed separately
Briefly: Toxicity (LD50) in mice. Conditions: mouse, in vivo.
The LD50 is the dose expected to kill half of the subjects tested. As for `CC1(COc2ccc(CC3SC(=O)NC3=O)cc2)CCCCC1=O` (stereo not drawn) [Test compound 3, 5-[4-(1-methyl-2-oxocyclohexylmethoxy)-benzyl]thiazolidine-2,4-dione], the LD50 is at least 5000 mg/kg. In the case of `CC1(COc2ccc(CC3SC(=O)NC3=O)cc2)CCCC(=O)C1` (stereo not drawn) [5-[4-(1-methyl-3-oxocyclohexylmethoxy)benzyl]thiazolidine-2,4-dione], the LD50 was at least 5000 mg/kg. Consider `CC1(COc2ccc(CC3SC(=O)NC3=O)cc2)CCC(=O)CC1` (stereo not drawn) [Example 3, 5-[4-(1-methyl-4-oxocyclohexylmethoxy)benzyl]thiazolidine-2,4-dione], for which the LD50 is at least 5000 mg/kg. Compound `CC1(COc2ccc(CC3SC(=O)NC3=O)cc2)CCC(O)CC1` (stereo not drawn) [5-[4-(4-hydroxy-1-methylcyclohexylmethoxy)benzyl]thiazolidine-2,4-dione] showed an LD50 of at least 5000 mg/kg.

The next data set concerns blood sugar. The experiment in a line: Hypoglycemic activity in mice (blood sugar by the glucose oxidase method). In kind it is in vivo, KKA^y mice (female, 10 weeks of age). The following applies: KKA^y mice; 0.02% in powder diet CE2 for 4 days; activity of test compound 1 regarded as 100. An excerpt:
KKA^y mice (female, 10 weeks of age, 5 mice/group) received ad libitum powder diet CE2 (CLEA JAPAN) containing 0.02% of the compounds indicated below in the table mixed therewith for 4 days. Water was available ad libitum throughout the period. Blood sample were taken from the orbital vein and assayed for blood sugar by the glucose oxidase method.
In the case of `CC1(COc2ccc(CC3SC(=O)NC3=O)cc2)CCCCC1O` (stereo not drawn) [compound 4], the “Hypoglycemic activity (relative potency)” value stood at 114. On the same count and under the same terms, to `CC1(COc2ccc(CC3SC(=O)NC3=O)cc2)CCCCC1=O` (stereo not drawn) [Test compound 3, 5-[4-(1-methyl-2-oxocyclohexylmethoxy)-benzyl]thiazolidine-2,4-dione] belongs 179.

For the compound “5-[4-(2-hydroxy-1-methylcyclohexylmethoxy)benzyl]thiazolidine-2,4-dione [Test compound 4]”, the “Hypoglycemic activity (relative potency)” value came out at 118. Same read-out and setting: to `C[C@@]1(COc2ccc(CC3SC(=O)NC3=O)cc2)CCC[C@H](O)C1` (relative stereo) [compound 7] belongs 125; to `C[C@@]1(COc2ccc(CC3SC(=O)NC3=O)cc2)CCC[C@@H](O)C1` (relative stereo) [Test compound 6, 5-[4-(t-3-hydroxy-1-methyl-r-1-cyclohexylmethoxy)benzyl]-thiazolidine-2,4-dione], 369.

The values above are taken from patent US4461902A, “Thiazolidine derivatives and production thereof” (Takeda Chemical Industries, Ltd., priority 1982, dated 1984).
